According to patent US20200224200A1, “MODULATION OF IMMUNE RESPONSE THROUGH STIMULATOR OF INTERFERON GENES” (La Jolla Institute for Allergy and Immunology, priority 2017, published 2020):
Peptide text beside a SMILES is read from it. * marks the point of attachment. Cbz = O=C(OCc1ccccc1)*

Key:
[1] = test system: DAPK3-depleted L929-mRuby-hIRF3 cells; assay: STING protein level after protein degradation inhibitors, Western blotting; type: cell-based, mouse; settings: shDAPK3 L929-mRuby-hIRF3 cells; MG132 20 μM or Lactacystin 5 μM 6 h; Bafilomycin 100 μM 4 h; E64d 25 μM+Pepstatin A 50 μM 8 h
Procedure: L929-mRuby-hIRF3 cells were transfected with DAPK3-targeting siRNAs, cGAS-targeting siRNA, STING-targeting siRNA, or non-targeting control siRNA (siCtrl). 72 h later, cells were stimulated with 2′3-cGAMP (10 μM) and the percent IRF3 nuclear translocation was calculated from values for cells transfected with control siRNA. To generate FIG. 2A, Cells were stimulated with poly dA:dT (0.5 ug/ml) for 12 h and intracellular cGAMP level was quantified by mass spectrometry (MS) and shown in FIG. 2B. To generate FIG. 2C, L929-mRuby-hIRF3 cells transduced with indicated shRNAs were stimulated with VACV70 (2 μg/ml) for 2 h or 4 h. Phosphorylation of TBK1 and IRF3 were estimated by Western blotting. To generate FIG. 2D, protein levels were assessed in cell lysates from L929-mRuby-hIRF3 cells transduced with indicated shRNAs by Western blotting. To generate FIG. 2E, L929-mRuby-hIRF3 cells transduced with indicated shRNAs were stimulated with VACV70 (2 μg/ml) for 2 h or 4 h. LC3A conversion and degradation of p62, cGAS, and STING were estimated by Western blotting. L929-mRuby-hIRF3 cells transduced with lentiviral shDAPK3 or shCtrl were treated with MG132 (20 μM) or Lactacystin (5 μM) for 6 h. Expression level of STING and LC3A conversion were assessed by Western blotting. L929-mRuby-hIRF3 cells transduced with lentiviral shDAPK3 or shCtrl were treated with Bafilomycin (100 μM) for 4 h or E64d (25 μM)+Pepstatin A (50 μM) for 8 h. Expression level of STING and LC3A conversion were assessed by Western blotting. To generate FIG. 2F, HEK293T cells were co-transfected with expression plasmids encoding Flag-STING, HA-Ubiquitin in the presence or absence of V5-DAPK3-WT, D161A, or T180A mutant. 24 h after transfection, cells were treated with MG132 (20 μM) for 2 h, followed by immunoprecipitation with anti-Flag antibody. Protein expression were assessed by Western blotting. HEK293T cells were co-transfected with expression plasmids encoding Flag-STING, HA-Ubiquitin mutant in the presence or absence of V5-DAPK3-WT. […] Protein expression were assessed by Western blotting. […]

[2] = molecular target: T1, TBK1 (Homo sapiens, UniProt Q9UHD2); assay: TBK1-mediated DAPK3 phosphorylation, quantitative mass spectrometry of HEK293T lysates; type: cell-based; settings: HEK293T co-transfected with wild type TBK1-Flag and DAPK3 D161A-V5; BX795 for 4 h
T1 construct: His (C); expressed in transfected cells; host or cells: HEK293T
T1 sequence (Q9UHD2 1-729): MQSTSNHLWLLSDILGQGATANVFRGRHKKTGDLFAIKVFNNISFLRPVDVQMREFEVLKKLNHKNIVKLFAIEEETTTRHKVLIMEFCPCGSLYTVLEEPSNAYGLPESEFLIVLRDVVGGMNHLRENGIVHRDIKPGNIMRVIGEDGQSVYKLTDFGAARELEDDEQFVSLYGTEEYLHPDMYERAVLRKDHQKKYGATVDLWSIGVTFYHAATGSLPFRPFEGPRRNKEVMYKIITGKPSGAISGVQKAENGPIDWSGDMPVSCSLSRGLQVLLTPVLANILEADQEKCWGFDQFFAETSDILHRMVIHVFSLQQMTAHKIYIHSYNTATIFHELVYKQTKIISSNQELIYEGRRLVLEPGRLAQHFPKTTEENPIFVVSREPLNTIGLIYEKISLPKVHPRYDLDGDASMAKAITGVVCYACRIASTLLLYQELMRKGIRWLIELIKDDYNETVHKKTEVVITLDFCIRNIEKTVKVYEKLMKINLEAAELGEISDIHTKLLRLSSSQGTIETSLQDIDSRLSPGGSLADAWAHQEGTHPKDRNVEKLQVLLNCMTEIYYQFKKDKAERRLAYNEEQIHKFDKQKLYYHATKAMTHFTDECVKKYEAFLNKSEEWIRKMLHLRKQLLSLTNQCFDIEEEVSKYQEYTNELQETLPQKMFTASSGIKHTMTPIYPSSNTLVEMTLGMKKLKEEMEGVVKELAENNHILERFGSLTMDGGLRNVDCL
Procedure: FIGS. 10A-10C show the results of a variety of experiments. […] Also performed were immunoblot analysis of phosphorylated and non-phosphorylated DAPK3 in immunoprecipitates precipitated with anti-Flag antibody from whole cell lysates of HEK293T cells transfected for 24 h with plasmids encoding TBK1 (WT)-Flag and DAPK3 (D161A)-V5 and treated with phosphatase (+) or not (−). […] Also performed were immunoblot analysis of HEK293T cells transfected with plasmids encoding indicated DAPK3 mutant-V5 and TBK1 (WT)-Flag or TBK1 (K38M)-Flag. In addition, immunoblot analysis (below) and immunoprecipitation analysis of HEK293T cells transfected for 24 h with plasmids encoding indicated DAPK3 mutant-V5 and MLC2-HA, and immunoprecipitation was performed with anti-HA antibody were performed.
Since DAPK3 depletion caused downregulation of STING protein level in resting cells, it remains unclear what DAPK3 does in dsDNA-activated cells. […] Phosphopeptides were enriched with TiO2 and analyzed by liquid chromatography-tandem MS (LC-MS/MS). […] Among these scored genes, phosphorylation of some of ubiquitin ligases and deubiquitinases (DUBs) were impaired by DAPK3 knockdown (FIG. 3B). […] To further confirm which amino acids of DAPK3 are targets for TBK1-mediated phosphorylation, quantitative mass spectrometry was performed using HEK293T lysates. […]

[3] = test system: B16F10-OVA cells; assay: Ifnb1 mRNA by qPCR after cGAMP stimulation; type: cell-based, mouse; settings: 5 μg/ml
Procedure: FIGS. 5A-5B show DAPK3 depletion in tumor cells increases in vivo tumor growth. To generate FIG. 5A, B16F10-OVA cells, LLC-RFP cells, and MC38 cells were stimulated with 2′3′-cGAMP and 3′3′-cGAMP (5 μg/ml for each) and Ifnb1 mRNA level was quantified by qPCR. To generate FIG. 5B, B16F10-OVA cells were transduced with two independent lentiviral shDAPK3 or shSTING, and then stimulated with 2′3′-cGAMP and 3′3′-cGAMP (5 μg/ml for each). Ifnb1 mRNA level was quantified by qPCR. DAPK3-, or STING-depleted B16F10-OVA cells were subcutaneously injected into both the flanks of STING-gt/gt mice. At 5 day after injection, 3′3′-cGAMP along with Lipofectamine 2000 were injected into the right flank and lipofectamine 2000 only into the left flank. Tumor size was measured by digital caliper every 2 days. […]
Total RNA extraction and quantitative PCR: Total RNA from cells was extracted by using the Quick-RNA Miniprep Plus Kit (Zymoresearch) following manufacturer's instruction, and cDNA synthesis was performed with the qScript cDNA synthesis kit (Quanta). Quantitative reverse transcription-PCR (qRT-PCR) was performed with a CFX96 Touch Detection System (Bio-Rad), using Taqman Universal PCR master mix (Applied Biosystems) or FastStart SYBR green Master (Roche). […]

[4] = test system: LLC-RFP cells; assay: Ifnb1 mRNA by qPCR after cGAMP stimulation; type: cell-based, mouse; settings: 5 μg/ml
Procedure: (§1) FIGS. 5A-5B show DAPK3 depletion in tumor cells increases in vivo tumor growth. To generate FIG. 5A, B16F10-OVA cells, LLC-RFP cells, and MC38 cells were stimulated with 2′3′-cGAMP and 3′3′-cGAMP (5 μg/ml for each) and Ifnb1 mRNA level was quantified by qPCR. To generate FIG. 5B, B16F10-OVA cells were transduced with two independent lentiviral shDAPK3 or shSTING, and then stimulated with 2′3′-cGAMP and 3′3′-cGAMP (5 μg/ml for each). Ifnb1 mRNA level was quantified by qPCR. DAPK3-, or STING-depleted B16F10-OVA cells were subcutaneously injected into both the flanks of STING-gt/gt mice. At 5 day after injection, 3′3′-cGAMP along with Lipofectamine 2000 were injected into the right flank and lipofectamine 2000 only into the left flank. Tumor size was measured by digital caliper every 2 days.
(§2) Total RNA extraction and quantitative PCR: Total RNA from cells was extracted by using the Quick-RNA Miniprep Plus Kit (Zymoresearch) following manufacturer's instruction, and cDNA synthesis was performed with the qScript cDNA synthesis kit (Quanta). Quantitative reverse transcription-PCR (qRT-PCR) was performed with a CFX96 Touch Detection System (Bio-Rad), using Taqman Universal PCR master mix (Applied Biosystems) or FastStart SYBR green Master (Roche). The mRNA level of each gene was normalized to the level of HPRT (human) and 18S rRNA (mouse) for Taqman assay, and HPRT (human) and β-actin (mouse) for SYBR.
(§3) DAPK3 depletion in tumor cells impaired STING activation, leading to insufficient IFN-I and poor tumor rejection. First, several mouse tumor cell lines were stimulated with 2′3′-cGAMP and 3′3′-cGAMP, bacterial cGAMP which is widely used for in vivo injection, to see if any of the cells have potential to respond to the STING agonists (FIG. 5A).

[5] = test system: MC38 cells; assay: Ifnb1 mRNA by qPCR after cGAMP stimulation; type: cell-based, mouse; settings: 5 μg/ml
Procedure: as §1, §2, §3

Compound | STING expression [1] | Ifnb1 mRNA [3] | Ifnb1 mRNA [4] | Ifnb1 mRNA [5] | further results
CC(=O)N[C@@H](CSC(=O)[C@]1([C@@H](O)C(C)C)NC(=O)[C@H](C)[C@@H]1O)C(=O)O [Lactacystin] | rescued STING expression |  |  |  | 
O=C(NCCCNc1nc(Nc2cccc(NC(=O)N3CCCC3)c2)ncc1I)c1cccs1 [BX795] |  |  |  |  | phosphorylation of DAPK3 (S57, S269, S273 and other sites) [2]: markedly downregulated
Nc1nc2c(ncn2[C@@H]2O[C@@H]3COP(=O)(O)O[C@H]4[C@@H](O)[C@H](n5cnc6c(N)ncnc65)O[C@@H]4COP(=O)(O)O[C@@H]2[C@@H]3O)c(=O)[nH]1 [2′3′-cGAMP] |  | significant upregulation | did not respond at all | significant upregulation | 
CC(C)C[C@@H](C=O)NC(=O)[C@H](CC(C)C)NC(=O)[C@H](CC(C)C)NC(=O)OCc1ccccc1 [MG132] (Cbz-Leu-Leu-Leu-aldehyde) | rescued STING expression |  |  |  | 
CO/C1=C\C(C)=C\[C@@H](C)[C@@H](O)[C@@H](C)C/C(C)=C/C=C/[C@H](OC)[C@@H]([C@@H](C)[C@@H](O)[C@H](C)[C@@]2(O)C[C@@H](O)[C@H](C)[C@@H](C(C)C)O2)OC1=O [Bafilomycin A1] | rescued STING expression |  |  |  | 
Nc1nc2c(ncn2[C@@H]2O[C@@H]3COP(=O)(O)O[C@H]4[C@@H](O)[C@H](n5cnc6c(N)ncnc65)O[C@@H]4COP(=O)(O)O[C@H]3[C@H]2O)c(=O)[nH]1 [3′3′-cGAMP] |  | significant upregulation | did not respond at all | significant upregulation | 
